Reference: paper PMC11836371, “Virtual fragment screening for DNA repair inhibitors in vast chemical space” (Nature Communications, 2025)
Values joined by “and” are separate entries in the source; they are usually repeats but may differ in a detail not shown here. Identical values can stand only once. Like-named read-outs stand apart in the source and are kept apart here. Values belong to the compound of their own block, whether it stands above or below them.

Experiments:
human OGG1 enzyme [1] = biological target: T1, human OGG1 enzyme (Homo sapiens, UniProt O15527); assay: Differential scanning fluorimetry (DSF) thermal shift assay; type: binding; parameters: ∆Tm (K): unit of the concentration uncertain; conditions: for ΔTm: concentration not given
T1 sequence (O15527 whole entry): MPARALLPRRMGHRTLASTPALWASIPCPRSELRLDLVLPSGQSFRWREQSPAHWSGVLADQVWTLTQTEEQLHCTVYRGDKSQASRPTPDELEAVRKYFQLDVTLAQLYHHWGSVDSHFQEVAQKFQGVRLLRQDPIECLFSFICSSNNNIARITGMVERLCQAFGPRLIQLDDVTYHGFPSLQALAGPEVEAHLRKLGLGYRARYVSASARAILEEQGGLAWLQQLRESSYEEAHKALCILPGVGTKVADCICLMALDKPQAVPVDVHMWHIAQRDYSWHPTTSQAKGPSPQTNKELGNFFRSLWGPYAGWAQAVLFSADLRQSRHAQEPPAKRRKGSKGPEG
Experimental: The temperature was increased from 20 °C to 85 °C with 10 readings/degree. Tm values were calculated using an excel template and fitting to the Boltzmann equation in Prism v.6.07 (GraphPad Software).

human OGG1 enzyme [2] = biological target: T1, human OGG1 enzyme; assay: OGG1 glycosylase activity assay (enzyme inhibition, APE1-coupled fluorescence); type: biochemical
Experimental: “8” signifies 8-oxoA and “FAM” and “Dab” signify fluorescein and dabcyl (TriLink Biotech). Briefly, compounds dissolved in DMSO were dispensed using an Echo 550 (Labcyte), followed by transfer of enzyme and substrate solutions manually with a 16-channel pipette or with a Multidrop (Thermo Scientific). The plates were centrifuged, sealed and incubated at room temperature overnight (15 h) and read the following morning in an Hidex Sense plate reader (Hidex Oy) using a 485-nm filter with a bandwidth of 10 nm for excitation and a 535-nm filter with a bandwidth of 20 nm for emission.

[3] = tested on: NF-κB activation in HEK293T pGF NF-κB cells; assay: TNF-α induced NF-κB activation assay; type: cell-based; conditions: Homo sapiens, HEK-293T; NFκB activation assay; ± SD; read-out: pEC50 (converted)
Experimental: The inhibition of TNF-α induced NF-κB activation was measured in HEK293T cells transfected with the pGreenfire NF-κB plasmid. This is a plasmid that has NF-κB response elements (TRE) coupled to GFP and luciferase expression. When the NF-κB is activated by TNF-α, it binds to the TRE and induces GFP expression, and the fluorescence can be measured in a plate reader. The cells were authenticated with STR profiling, frozen down and these stocks were used in experiments. The HEK293T pGF NF-κB cells were kept in DMEM with 5% FBS and 1% P/S but, when seeded for the assay the medium was changed to DMEM FluoroBrite with 1% dialyzed FBS. All cell culture reagents were purchased from Thermo Fisher Scientific. Compounds were nano-dispensed (Echo acoustic dispenser) in 96-well, black/clear, assay plates (Corning #3904), duplicate plates, in 8-points dose-response curves, 1:2 dilutions, with DMSO compensation (0.3% DMSO). Cells were seeded at 30000 cells/well in medium containing 10 ng/mL of TNF-α (Sigma-Aldrich), except negative control wells which only contained cells in medium. Cells were cultured for 24 hours in a humidified incubator at 37 °C with 5% CO2 after which the GFP fluorescence was measured in a Sense plate reader (Hidex) with ex485/em535. The RFU data from the duplicate plates were combined to calculate % inhibition of NF-κB activation and IC50-values were calculated using XLfit (IDBS). In parallel with the NF-κB assay, a CellTiterGlo (Promega) cell viability assay was run to exclude compounds affecting cell viability. Compounds were nano-dispensed (Echo acoustic dispenser) in assay plates in 11-points dose-response curves, 1:3 dilutions, without DMSO compensation, with duplicates on the same plate. Cells were seeded at 7500 cells/well in 25 µL medium (DMEM FluoroBrite with 1% dialyzed FBS) containing 10 ng/mL TNF-α and cultured for 24 hours, with column 24 containing only culture medium. After equilibration to room temperature, the CellTiterGlo reagents were mixed and 25 µL/well were added to the cell plate. After 2 min mixing of the plate on an orbital shaker, the plate was incubated for 10 min at room temperature followed by luminescence reading in Sense. The cell viability was calculated compared to untreated control wells and the EC50 values were determined in XLfit (IDBS). […]

HCT116 cells = assay: Cancer cell viability assay (resazurin), HCT116; type: cell-based; conditions: two independent experiments
Experimental: (§1) Three different cancer cell lines A2780 (ovarian cancer, ECACC 93112519), A549 (lung cancer, ATCC 60150896) and HCT116 (colon cancer, ATCC CCL-247), and one immortalized fibroblast cell line (BJhTERT) as control, were seeded in black/clear 384-well plates (Corning #3764), 50 µL/well, containing 11 concentrations, nano-dispensed, dose-response curves of the test compounds. A2780, HCT116, and HEK293T cell lines were authenticated with STR profiling, frozen down, and these stocks were used in experiments. The A2780 cells were cultured in RPMI 1640, the A549 and BJhTERT cells in DMEM, and the HCT116 cells in McCoys 5 A medium. All media were supplemented with 10% FBS and 1% P/S. All cell culture media, additives, and reagents were purchased from Thermo Fisher Scientific. The cell plates were incubated 72 hours in a humidified incubator at 37 °C with 5% CO2, after which resazurin (Sigma-Aldrich), 10 µL/well, was added to a final concentration of 10 µg/mL. The plates were incubated for 6 hours with resazurin followed by fluorescence readings in a Sense plate reader (Hidex), resorufin protocol (ex 544 nm/em 595 nm). The cell viability was calculated compared to untreated control wells and the EC50 values were determined in XLfit (IDBS).

BJhTERT cells = assay: Cell viability assay (resazurin), BJhTERT non-transformed control; type: cell-based; conditions: BJhTERT, 100 μM, two independent experiments
Experimental: (§2) A2780, HCT116, and HEK293T cell lines were authenticated with STR profiling, frozen down, and these stocks were used in experiments. […] All media were supplemented with 10% FBS and 1% P/S. All cell culture media, additives, and reagents were purchased from Thermo Fisher Scientific. The cell plates were incubated 72 hours in a humidified incubator at 37 °C with 5% CO2, after which resazurin (Sigma-Aldrich), 10 µL/well, was added to a final concentration of 10 µg/mL. […] The cell viability was calculated compared to untreated control wells and the EC50 values were determined in XLfit (IDBS).

[4] = as above; type: cell-based; conditions: human, BJhTERT, 100 μM, two independent experiments; read-out: percentage cell viability
Experimental: as §2

A2780 cells = assay: Cancer cell viability assay (resazurin), A2780; type: cell-based; conditions: two independent experiments
Experimental: as §1

[5] = 495 (unit uncertain) as printed in sheet footnote
[6] = Table S2, virtual fragment screen hits, read-out: pIC50 (converted)
[7] = 99 (unit uncertain) as printed in sheet footnote
[8] = Table S5, ± SD, read-out: pIC50 (converted)

∆Tm (K) (human OGG1 enzyme [1]; 495 µM): -0.03 K
SMILES: Cc1nocc1NC(=O)Nc1ccnn1C(C)C [ZINC000866108350]

∆Tm (K) (human OGG1 enzyme [1]; 495 µM): -0.15 K
SMILES: CCC(C)(O)C(=O)Nc1nnc2n1CCCC2 (stereo not drawn) [ZINC000935297684]

∆Tm (K) (human OGG1 enzyme [1]; 99 μM): -0.03 K
SMILES: O=S(=O)(Nc1ccc(Cl)cc1F)N1CCc2ccccc2C1 [ZINC000990255105]

∆Tm (K) (human OGG1 enzyme [1]; 99 μM): -0.07 K
SMILES: Cc1ccc(C(=O)NCc2nc(-c3cccnc3)no2)cc1C [ZINC001046413262]

∆Tm (K) (human OGG1 enzyme [1]; 99 μM): 0.00 K and 0 K
SMILES: CCN(Cc1ccccc1)S(=O)(=O)NC1Cc2ccccc2C1 [ZINC001146929060]

∆Tm (K) (human OGG1 enzyme [1]; 99 μM): 0.15 K
SMILES: Cc1cscc1NC(=O)NCc1cccc(-n2cncn2)c1 [ZINC001624168456]

The next lines start with the compound.

SMILES: CCc1ccc(C(=O)NC[C]2CS(=O)(=O)c3ccccc3O2)cc1 [ZINC001002782586]
∆Tm (K) (human OGG1 enzyme [1]; 99 μM): -0.13 K

SMILES: O=C(Nc1noc2c1CCCC2)C1CC12CCC2 (stereo not drawn) [compound 1]
OGG1 inhibition, dose-response (Figure2C) (human OGG1 enzyme [2]; Concentration (M) 9.67e-7): 3.85 and 6.91 | OGG1 inhibition, dose-response (Figure2C) (human OGG1 enzyme [2]; Concentration (M) 0.000248): 16.25 and 9.26 | OGG1 inhibition, dose-response (Figure2C) (human OGG1 enzyme [2]; Concentration (M) 0.000495): 25.93 and 22.47 | inhibition at 99 µM (human OGG1 enzyme [2]; at 99 μM, read-out: percent inhibition of OGG1): < 50% | IC50 (human OGG1 enzyme [2]; listed as Fragment 1): too weak to determine an IC50 value | IC50 (human OGG1 enzyme [2]; read-out: IC50): > 99 µM | ∆Tm (K) (human OGG1 enzyme [1]; [5]): 2.8 K | ΔTm (human OGG1 enzyme [1]): 2.8 K

SMILES: CC1(C)CC1(C)NC(=O)c1cc2cccn2cn1 (stereo not drawn) [compound 2]
IC50 (human OGG1 enzyme [2]; [6]): > 100 µM | ∆Tm (K) (human OGG1 enzyme [1]; 495 µM): 1.6 K and > 1 K | ∆Tm (K) (human OGG1 enzyme [1]; [5]): 1.6 K

SMILES: Cc1ccc(CNC(=O)c2ccc(F)nc2)cc1 [compound 3]
IC50 (human OGG1 enzyme [2]; [6]): > 100 µM | ∆Tm (K) (human OGG1 enzyme [1]; 495 µM): 0.6 K | ∆Tm (K) (human OGG1 enzyme [1]; [5]): 0.6 K

SMILES: CC1(C)CC(NC(=O)c2csc3cncn23)C1 [compound 4]
IC50 (human OGG1 enzyme [2]; [6]): > 100 µM | ∆Tm (K) (human OGG1 enzyme [1]; 495 µM): 0.5 K | ∆Tm (K) (human OGG1 enzyme [1]; [5]): 0.5 K

SMILES: O=C(Nc1noc2c1CCCC2)[C@H]1Cc2ccccc21 [compound 5]
IC50 (human OGG1 enzyme [2]; read-out: IC50): 58 µM | ∆Tm (K) (human OGG1 enzyme [1]; 99 μM): 4.1 ± 0.7 K | ∆Tm (K) (human OGG1 enzyme [1]; [7]): 4.1 ± 0.7 K | ΔTm (human OGG1 enzyme [1]): 4.1 K

SMILES: O=C(Cc1c(F)cccc1F)Nc1noc2c1CCCC2 [compound 6]
IC50 (human OGG1 enzyme [2]; Table 1, mean ± SD, at least three independent replicates, read-out: pIC50 (converted)): 36.3 µM | ∆Tm (K) (human OGG1 enzyme [1]; 99 μM): 1.1 ± 0.5 K | ∆Tm (K) (human OGG1 enzyme [1]; [7]): 1.1 ± 0.5 K

SMILES: Cc1cc(C)n(-c2ccc(CC(=O)Nc3noc4c3CCCC4)cc2)n1 [compound 7]
EC50 [3]: 35.5 µM | OGG1 inhibition, dose-response (Figure2C) (human OGG1 enzyme [2]; Concentration (M) 9.67e-7): 16.25 and 10.96 | OGG1 inhibition, dose-response (Figure2C) (human OGG1 enzyme [2]; Concentration (M) 1.93e-6): 24.11 and 22.26 | OGG1 inhibition, dose-response (Figure2C) (human OGG1 enzyme [2]; Concentration (M) 3.87e-6): 37.42 and 38.76 | OGG1 inhibition, dose-response (Figure2C) (human OGG1 enzyme [2]; Concentration (M) 7.73e-6): 52.82 and 50.97 | OGG1 inhibition, dose-response (Figure2C) (human OGG1 enzyme [2]; Concentration (M) 1.55e-5): 74.43 and 67.46 | OGG1 inhibition, dose-response (Figure2C) (human OGG1 enzyme [2]; Concentration (M) 3.09e-5): 80.92 and 75.35 | OGG1 inhibition, dose-response (Figure2C) (human OGG1 enzyme [2]; Concentration (M) 6.19e-5): 85.03 and 86.63 | OGG1 inhibition, dose-response (Figure2C) (human OGG1 enzyme [2]; Concentration (M) 0.000124): 92.57 and 92.28 | OGG1 inhibition, dose-response (Figure2C) (human OGG1 enzyme [2]; Concentration (M) 0.000248): 92.32 and 95.26 | OGG1 inhibition, dose-response (Figure2C) (human OGG1 enzyme [2]; Concentration (M) 0.000495): 96.86 and 92.16 | IC50 (human OGG1 enzyme [2]; read-out: IC50): 6.6 µM | ∆Tm (K) (human OGG1 enzyme [1]; 99 μM): 5.5 K and 5.5 ± 1.2 K | ∆Tm (K) (human OGG1 enzyme [1]; [7]): 5.5 ± 1.2 K | ΔTm (human OGG1 enzyme [1]): 5.5 K

SMILES: O=C(Cc1ccc(-n2ncc3ccncc32)cc1)Nc1noc2c1CCCC2 [compound 13]
EC50 [3]: 14.1 µM | IC50 (human OGG1 enzyme [2]; [8]): 47.9 µM

SMILES: O=C(Cc1ccc(-n2ncc3c2CNCC3)cc1)Nc1noc2c1CCCC2 [compound 15]
EC50 [3]: 13.2 µM

SMILES: O=C(Cc1ccc(-n2ncc3c2CCNC3)cc1)Nc1noc2c1CCCC2 [compound 16]
EC50 [3]: > 31.6 µM | IC50 (human OGG1 enzyme [2]; [8]): > 100 µM

SMILES: Cc1nc(-c2ccc(CC(=O)Nc3noc4c3CCCC4)c(C)c2)c(C)[nH]1 [compound 19]
percentage cell viability (HCT116 cells; HCT116, 100 μM, 100 µM): 6.65% | viability at 100 µM (HCT116 cells; Homo sapiens, HCT-116, HCT116, 100 μM, read-out: percentage cell viability): 5.31% | percentage cell viability (BJhTERT cells): 24.77% | viability at 72 h, 100 µM [4]: 15.2% | EC50 [3]: 10.5 µM | IC50 (human OGG1 enzyme [2]; [8]): 0.813 µM | ∆Tm (K) (human OGG1 enzyme [1]; 99 μM): 7.4 ± 0.2 K | percentage cell viability (A2780 cells; A2780, 100 μM, 100 µM): 2.96% | viability at 100 µM (A2780 cells; Homo sapiens, A2780, A2780, 100 μM, read-out: percentage cell viability): 2.43%
